Reference: patent US20240246942A1, “KINASE INHIBITORS FOR THE TREATMENT OF NEURODEGENERATIVE DISEASES” (priority 2020, published 2024)

What was measured:
Experiment in all cases: biochemical
[1] = biological target: T1, panel of 374 wild-type kinases (Homo sapiens, UniProt O14733); conditions: read-out: % Enzyme Activity (relative to DMSO controls), MKK7
T1 construct: purchased Reaction Biology Corporation
T1 sequence (O14733 1-419): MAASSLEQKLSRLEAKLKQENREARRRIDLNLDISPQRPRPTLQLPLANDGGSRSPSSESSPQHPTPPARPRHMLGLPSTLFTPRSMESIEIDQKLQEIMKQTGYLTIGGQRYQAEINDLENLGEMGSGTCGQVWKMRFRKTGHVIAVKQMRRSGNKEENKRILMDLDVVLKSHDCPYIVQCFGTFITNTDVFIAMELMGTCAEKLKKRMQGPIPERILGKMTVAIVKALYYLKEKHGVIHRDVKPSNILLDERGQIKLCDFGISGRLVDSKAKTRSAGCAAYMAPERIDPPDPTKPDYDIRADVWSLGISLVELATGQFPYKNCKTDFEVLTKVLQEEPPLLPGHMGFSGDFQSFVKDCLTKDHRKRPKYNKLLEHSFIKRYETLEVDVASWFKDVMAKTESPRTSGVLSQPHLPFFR

[2] = biological target: T2, panel of 374 wild-type kinases (Homo sapiens, UniProt O14757); conditions: read-out: % Enzyme Activity (relative to DMSO controls), CHK1
T2 construct: purchased Reaction Biology Corporation
T2 sequence (O14757 1-476): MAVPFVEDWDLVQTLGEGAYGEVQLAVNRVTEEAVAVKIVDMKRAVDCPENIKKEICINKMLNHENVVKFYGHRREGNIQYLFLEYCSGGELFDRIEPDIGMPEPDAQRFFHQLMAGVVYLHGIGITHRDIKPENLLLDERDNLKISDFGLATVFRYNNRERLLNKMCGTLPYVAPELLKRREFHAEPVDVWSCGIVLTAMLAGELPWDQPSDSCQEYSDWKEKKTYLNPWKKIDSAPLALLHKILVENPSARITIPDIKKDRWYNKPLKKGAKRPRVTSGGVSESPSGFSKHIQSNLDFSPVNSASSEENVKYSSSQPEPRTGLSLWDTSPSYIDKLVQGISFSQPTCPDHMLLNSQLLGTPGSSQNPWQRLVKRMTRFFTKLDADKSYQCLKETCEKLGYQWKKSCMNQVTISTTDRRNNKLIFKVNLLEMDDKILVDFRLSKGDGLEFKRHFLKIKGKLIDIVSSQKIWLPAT

[3] = biological target: T3, panel of 374 wild-type kinases (Homo sapiens, UniProt O43781); conditions: read-out: % Enzyme Activity (relative to DMSO controls), DYRK3
T3 construct: purchased Reaction Biology Corporation
T3 sequence (O43781 1-588): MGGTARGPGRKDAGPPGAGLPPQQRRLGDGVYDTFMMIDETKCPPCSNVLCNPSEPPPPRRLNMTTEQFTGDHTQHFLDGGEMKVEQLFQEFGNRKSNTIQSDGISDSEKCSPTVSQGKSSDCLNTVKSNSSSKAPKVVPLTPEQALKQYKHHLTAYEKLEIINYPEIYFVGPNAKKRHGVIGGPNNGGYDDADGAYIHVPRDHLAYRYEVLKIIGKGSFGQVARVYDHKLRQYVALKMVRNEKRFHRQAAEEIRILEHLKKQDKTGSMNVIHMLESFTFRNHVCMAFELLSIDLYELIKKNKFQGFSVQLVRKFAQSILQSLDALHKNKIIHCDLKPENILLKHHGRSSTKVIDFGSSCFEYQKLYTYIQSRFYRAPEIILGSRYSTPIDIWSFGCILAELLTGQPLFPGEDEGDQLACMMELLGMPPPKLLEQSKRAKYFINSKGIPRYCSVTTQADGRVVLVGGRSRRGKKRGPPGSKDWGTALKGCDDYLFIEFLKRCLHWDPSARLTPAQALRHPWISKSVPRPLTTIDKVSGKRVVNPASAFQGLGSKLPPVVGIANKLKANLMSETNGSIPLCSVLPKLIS

[4] = biological target: T4, panel of 374 wild-type kinases (Homo sapiens, UniProt P00533); conditions: read-out: % Enzyme Activity (relative to DMSO controls), EGFR
T4 construct: purchased Reaction Biology Corporation

[5] = biological target: T5, panel of 374 wild-type kinases (Homo sapiens, UniProt P04626); conditions: read-out: % Enzyme Activity (relative to DMSO controls), ERBB2/HER2
T5 construct: purchased Reaction Biology Corporation
T5 sequence (P04626 23-1255): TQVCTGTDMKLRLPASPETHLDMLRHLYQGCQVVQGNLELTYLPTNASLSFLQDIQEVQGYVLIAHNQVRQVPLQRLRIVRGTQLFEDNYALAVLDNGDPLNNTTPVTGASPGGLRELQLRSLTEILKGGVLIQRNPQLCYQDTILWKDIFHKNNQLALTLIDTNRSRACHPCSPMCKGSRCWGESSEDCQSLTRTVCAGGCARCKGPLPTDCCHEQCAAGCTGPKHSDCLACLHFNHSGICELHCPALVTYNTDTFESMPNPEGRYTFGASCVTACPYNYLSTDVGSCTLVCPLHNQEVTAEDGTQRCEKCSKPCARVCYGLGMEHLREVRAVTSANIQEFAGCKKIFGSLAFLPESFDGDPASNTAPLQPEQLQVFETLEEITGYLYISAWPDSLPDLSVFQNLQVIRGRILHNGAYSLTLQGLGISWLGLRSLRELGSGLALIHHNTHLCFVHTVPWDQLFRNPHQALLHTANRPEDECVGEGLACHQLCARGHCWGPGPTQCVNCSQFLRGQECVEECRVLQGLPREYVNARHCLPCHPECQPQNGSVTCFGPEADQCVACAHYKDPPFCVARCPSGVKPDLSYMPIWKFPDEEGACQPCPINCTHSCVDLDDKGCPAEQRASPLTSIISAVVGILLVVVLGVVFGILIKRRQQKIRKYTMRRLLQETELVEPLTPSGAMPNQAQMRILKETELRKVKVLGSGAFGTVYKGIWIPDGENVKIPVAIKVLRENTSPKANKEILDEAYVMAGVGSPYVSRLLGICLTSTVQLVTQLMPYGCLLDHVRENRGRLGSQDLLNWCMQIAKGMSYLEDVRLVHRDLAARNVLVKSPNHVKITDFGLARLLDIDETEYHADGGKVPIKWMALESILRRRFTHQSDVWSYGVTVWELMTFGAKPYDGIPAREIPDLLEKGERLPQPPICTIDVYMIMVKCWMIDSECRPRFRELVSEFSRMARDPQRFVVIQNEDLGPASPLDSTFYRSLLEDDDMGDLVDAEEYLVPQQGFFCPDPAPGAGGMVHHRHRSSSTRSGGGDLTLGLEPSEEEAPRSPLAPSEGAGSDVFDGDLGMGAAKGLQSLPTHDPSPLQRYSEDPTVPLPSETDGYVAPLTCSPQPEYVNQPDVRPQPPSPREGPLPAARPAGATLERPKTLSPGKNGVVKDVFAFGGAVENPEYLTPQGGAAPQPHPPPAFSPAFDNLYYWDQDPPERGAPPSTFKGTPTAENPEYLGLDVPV

[6] = biological target: T6, panel of 374 wild-type kinases (Homo sapiens, UniProt P51812); conditions: read-out: % Enzyme Activity (relative to DMSO controls), kinase RSK2
T6 construct: purchased Reaction Biology Corporation
T6 sequence (P51812 whole entry): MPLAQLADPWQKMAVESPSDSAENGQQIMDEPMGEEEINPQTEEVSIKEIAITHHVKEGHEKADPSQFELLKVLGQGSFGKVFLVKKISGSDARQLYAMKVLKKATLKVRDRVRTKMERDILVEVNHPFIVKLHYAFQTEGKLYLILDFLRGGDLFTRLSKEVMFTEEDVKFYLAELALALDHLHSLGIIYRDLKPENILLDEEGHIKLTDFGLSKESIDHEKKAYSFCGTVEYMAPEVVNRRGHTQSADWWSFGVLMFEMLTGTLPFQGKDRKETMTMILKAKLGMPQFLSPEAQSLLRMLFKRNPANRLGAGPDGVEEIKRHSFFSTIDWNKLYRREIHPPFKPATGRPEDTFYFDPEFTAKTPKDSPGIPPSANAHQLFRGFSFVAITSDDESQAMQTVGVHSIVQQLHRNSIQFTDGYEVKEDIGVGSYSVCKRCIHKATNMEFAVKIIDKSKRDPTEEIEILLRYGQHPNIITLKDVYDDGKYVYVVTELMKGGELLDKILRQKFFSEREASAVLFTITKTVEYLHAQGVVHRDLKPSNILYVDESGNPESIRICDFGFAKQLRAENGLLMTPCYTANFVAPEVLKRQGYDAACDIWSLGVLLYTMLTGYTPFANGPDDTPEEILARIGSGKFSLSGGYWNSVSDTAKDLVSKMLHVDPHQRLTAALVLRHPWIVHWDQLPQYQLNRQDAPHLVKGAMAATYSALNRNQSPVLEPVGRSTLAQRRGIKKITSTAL

[7] = biological target: T7, panel of 374 wild-type kinases (Homo sapiens, UniProt Q13555); conditions: read-out: % Enzyme Activity (relative to DMSO controls), CAMK2g
T7 construct: purchased Reaction Biology Corporation
T7 sequence (Q13555 whole entry): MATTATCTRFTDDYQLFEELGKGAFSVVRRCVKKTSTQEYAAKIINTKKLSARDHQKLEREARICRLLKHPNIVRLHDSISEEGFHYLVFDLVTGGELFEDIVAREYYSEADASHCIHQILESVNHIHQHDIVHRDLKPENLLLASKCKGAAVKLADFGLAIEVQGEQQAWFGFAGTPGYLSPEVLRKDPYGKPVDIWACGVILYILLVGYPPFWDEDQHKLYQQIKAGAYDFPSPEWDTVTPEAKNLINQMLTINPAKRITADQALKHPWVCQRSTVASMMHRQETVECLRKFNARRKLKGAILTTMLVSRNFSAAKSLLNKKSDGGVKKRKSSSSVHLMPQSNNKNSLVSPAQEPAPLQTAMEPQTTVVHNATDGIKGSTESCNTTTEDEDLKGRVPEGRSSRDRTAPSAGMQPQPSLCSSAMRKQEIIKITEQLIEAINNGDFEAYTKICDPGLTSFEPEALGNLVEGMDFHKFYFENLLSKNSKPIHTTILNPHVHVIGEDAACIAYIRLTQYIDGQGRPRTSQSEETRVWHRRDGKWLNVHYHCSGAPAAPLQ

[8] = biological target: T8, panel of 374 wild-type kinases (Homo sapiens, UniProt Q15569); conditions: read-out: % Enzyme Activity (relative to DMSO controls), kinase TESK1
T8 construct: purchased Reaction Biology Corporation
T8 sequence (Q15569 whole entry): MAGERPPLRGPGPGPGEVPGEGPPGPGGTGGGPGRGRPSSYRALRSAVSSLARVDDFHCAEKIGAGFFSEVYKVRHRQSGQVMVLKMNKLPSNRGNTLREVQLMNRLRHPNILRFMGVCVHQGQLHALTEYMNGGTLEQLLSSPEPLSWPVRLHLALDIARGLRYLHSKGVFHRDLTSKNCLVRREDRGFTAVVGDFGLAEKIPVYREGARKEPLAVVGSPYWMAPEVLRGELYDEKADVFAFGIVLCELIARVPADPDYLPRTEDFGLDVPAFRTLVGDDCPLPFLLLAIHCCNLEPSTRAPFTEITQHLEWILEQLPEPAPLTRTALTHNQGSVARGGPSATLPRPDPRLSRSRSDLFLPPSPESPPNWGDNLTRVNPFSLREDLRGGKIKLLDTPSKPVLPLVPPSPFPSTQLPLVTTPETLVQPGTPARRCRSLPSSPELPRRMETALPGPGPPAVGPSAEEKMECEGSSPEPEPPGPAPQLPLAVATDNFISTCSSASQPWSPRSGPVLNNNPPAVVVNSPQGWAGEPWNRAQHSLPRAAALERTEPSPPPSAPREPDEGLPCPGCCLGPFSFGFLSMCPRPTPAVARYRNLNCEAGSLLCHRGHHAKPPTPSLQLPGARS

[9] = biological target: T9, panel of 374 wild-type kinases (Homo sapiens, UniProt Q9H2G2); conditions: read-out: % Enzyme Activity (relative to DMSO controls), kinase SLK/STK2
T9 construct: purchased Reaction Biology Corporation
T9 sequence (Q9H2G2 whole entry): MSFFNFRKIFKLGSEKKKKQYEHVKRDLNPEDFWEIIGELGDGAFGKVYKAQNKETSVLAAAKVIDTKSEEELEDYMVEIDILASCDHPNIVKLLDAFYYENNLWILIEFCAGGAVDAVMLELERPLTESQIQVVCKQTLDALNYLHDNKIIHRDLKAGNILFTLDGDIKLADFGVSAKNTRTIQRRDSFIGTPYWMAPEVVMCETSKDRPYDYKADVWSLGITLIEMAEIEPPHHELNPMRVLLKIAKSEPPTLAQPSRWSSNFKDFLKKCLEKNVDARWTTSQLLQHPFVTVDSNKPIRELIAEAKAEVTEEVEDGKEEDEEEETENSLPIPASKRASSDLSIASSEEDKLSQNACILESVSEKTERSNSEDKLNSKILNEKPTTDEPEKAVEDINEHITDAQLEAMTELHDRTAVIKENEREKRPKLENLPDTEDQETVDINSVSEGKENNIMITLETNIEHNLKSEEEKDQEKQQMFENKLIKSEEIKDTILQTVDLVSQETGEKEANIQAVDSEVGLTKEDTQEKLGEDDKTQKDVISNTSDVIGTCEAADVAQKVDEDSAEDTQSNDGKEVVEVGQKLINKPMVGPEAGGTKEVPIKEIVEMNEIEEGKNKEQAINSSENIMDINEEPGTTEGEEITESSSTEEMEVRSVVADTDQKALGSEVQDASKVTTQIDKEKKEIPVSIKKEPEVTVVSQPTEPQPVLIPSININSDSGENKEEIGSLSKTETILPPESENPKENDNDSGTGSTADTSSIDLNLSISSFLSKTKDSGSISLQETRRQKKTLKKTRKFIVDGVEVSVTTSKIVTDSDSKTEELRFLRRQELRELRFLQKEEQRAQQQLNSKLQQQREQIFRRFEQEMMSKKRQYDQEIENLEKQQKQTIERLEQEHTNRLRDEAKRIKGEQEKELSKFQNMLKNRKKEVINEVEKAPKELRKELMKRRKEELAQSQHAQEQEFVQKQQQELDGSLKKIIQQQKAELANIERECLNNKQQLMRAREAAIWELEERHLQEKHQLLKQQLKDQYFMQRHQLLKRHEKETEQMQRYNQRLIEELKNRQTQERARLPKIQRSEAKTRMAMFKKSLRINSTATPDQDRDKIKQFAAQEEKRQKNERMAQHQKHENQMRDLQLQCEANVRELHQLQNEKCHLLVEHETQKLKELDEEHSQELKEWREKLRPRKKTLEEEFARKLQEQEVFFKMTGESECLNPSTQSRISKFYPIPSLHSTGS

Structure (SMILES) | remaining activity at 5 µM [1] [%] | remaining activity at 5 µM [2] [%] | remaining activity at 5 µM [3] [%] | remaining activity at 5 µM [4] [%] | remaining activity at 5 µM [5] [%] | remaining activity at 5 µM [6] [%] | remaining activity at 5 µM [7] [%] | remaining activity at 5 µM [8] [%] | remaining activity at 5 µM [9] [%] | remaining activity at 10 µM ([1]; 10 uM) [%] | remaining activity at 10 µM ([2]; 10 uM) [%] | remaining activity at 10 µM ([3]; 10 uM) [%] | remaining activity at 10 µM ([4]; 10 uM) [%] | remaining activity at 10 µM ([5]; 10 uM) [%] | remaining activity at 10 µM ([6]; 10 uM) [%] | remaining activity at 10 µM ([7]; 10 uM) [%] | remaining activity at 10 µM ([8]; 10 uM) [%] | remaining activity at 10 µM ([9]; 10 uM) [%]
O=C(Nc1cnn(-c2csc(C(=O)NC3COC3)c2)c1)Nc1c(F)cccc1Cl [Compound 25, 4-(4-(3-(2-chloro-6-fluorophenyl)ureido)-1H-pyrazol-1-yl)-N-(oxetan-3-yl)thiophene-2-carboxamide] | 135 | 141 | 99.2 | 89.4 | 97 | 79.9 | 90.1 | 91 | 95 | – | – | – | – | – | – | – | – | –
O=C(Nc1cnn(-c2csc(C(=O)NC3COC3)c2)c1)Nc1ccccc1Cl [Compound 17, 4-(4-(3-(2-chlorophenyl)ureido)-1H-pyrazol-1-yl)-N-(oxetan-3-yl)thiophene-2-carboxamide] | 112 | 98.7 | 93.3 | 99.7 | 103 | 101 | 96.4 | 101 | 89.7 | – | – | – | – | – | – | – | – | –
Cc1sc(C(=O)NC2COC2)cc1-n1cc(NC(=O)Nc2c(F)cccc2Cl)cn1 [Compound 27, 4-(4-(3-(2-chloro-6-fluorophenyl)ureido)-1H-pyrazol-1-yl)-5-methyl-N-(oxetan-3-yl)thiophene-2-carboxamide] | – | – | – | – | – | – | – | – | – | 120 | 118 | 101 | 98.5 | 64.1 | 73 | 102 | 88.7 | 99.7
